{
  "source": "patent US11197891B2",
  "about": "“Therapies with lanthionine C-like protein 2 ligands and cells prepared therewith” (Landos Biopharma, Inc., priority 2017, dated 2021)",
  "key": {"[1]": {"system": "CD4+ T cells", "assay": "Differentiation of CD4+ T cells into Tregs with metabolic modulators", "type": "cell-based, mice", "details": "BT-11 with PS-48 (5 μM), DASA-58 (10 μM) or thapsigargin (10 nM)", "method": "(§1) Spleens from WT and Lancl2−/− mice were excised and crushed to generate a single cell suspension. CD4+ T cell fraction was enriched by negative selection via magnetic sorting with the BD IMag system. Naïve CD4+ T cells were obtained by incubation with a biotinylated CD62L antibody followed by conjugation to streptavidin coated magnetic beads. Naïve cells were incubated for 48 hours within anti-CD3 coated tissue culture plates in complete IMDM media containing all-trans retinoic acid and purified TGF-β to stimulate differentiation into Tregs. […] Metabolic modulators, PS-48 (5 μM), DASA-58 (10 μM), and thapsigargin (10 nM), were added at 0 h. […] Six hours prior to assay, cells were stimulated with PMA and ionomycin. Cells were collected from plate for downstream analysis by flow cytometry, gene expression and metabolic assay."}, "[2]": {"molecular_target": "T1, LANCL2 (Homo sapiens, UniProt Q9NS86)", "T1 sequence (Q9NS86 1-450)": "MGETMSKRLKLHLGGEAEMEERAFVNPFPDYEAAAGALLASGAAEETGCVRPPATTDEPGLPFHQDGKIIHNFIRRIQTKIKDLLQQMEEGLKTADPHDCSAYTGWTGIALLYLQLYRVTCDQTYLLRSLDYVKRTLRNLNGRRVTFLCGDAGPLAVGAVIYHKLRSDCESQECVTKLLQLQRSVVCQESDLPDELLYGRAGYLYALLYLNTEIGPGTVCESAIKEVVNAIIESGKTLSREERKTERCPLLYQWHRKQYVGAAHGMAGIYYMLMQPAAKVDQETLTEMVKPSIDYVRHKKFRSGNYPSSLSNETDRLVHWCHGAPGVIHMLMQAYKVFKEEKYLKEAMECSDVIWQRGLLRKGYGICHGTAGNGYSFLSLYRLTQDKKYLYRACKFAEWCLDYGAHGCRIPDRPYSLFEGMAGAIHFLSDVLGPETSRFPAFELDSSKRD", "assay": "Surface plasmon resonance (SPR) binding to LANCL2", "details": "Tables 1A and 1B; read-out: SPR Affinity to LANCL2 (Kd)"}, "[3]": {"system": "in vitro differentiated Tregs", "assay": "STAT5a and FOXO1 phosphorylation by Western blot in in vitro differentiated Tregs", "type": "cell-based, mice", "source_text": "Cells were also differentiated in the presence of inhibitors for PTEN (SF1670) or STATS (STAT5i)."}, "[4]": {"system": "Lancl2ΔT and Lancl2-expressing control mice challenged with DSS", "assay": "DSS model of colitis", "type": "in vivo"}, "[5]": {"system": "CD4+ T cells co-cultured with in vitro differentiated Tregs", "assay": "Co-assay of CD4+ T cells and BT-11 pre-treated Treg cells", "type": "cell-based, mice", "method": "as §1\nAfter two days cells were collected and plated with freshly collected CFSE-labeled CD4+ T cells."}, "[6]": {"system": "PBMCs from Crohn's disease donors", "assay": "PBMCs isolated from Crohn's disease donors, 24 hour culture", "type": "cell-based, human", "method": "(§2) Fresh de-identified whole blood was obtained from commercial vendor. Blood was diluted and purified for PBMC fraction by LeukoSep tube. Remaining red blood cells were lysed by hypotonic lysis. […] For siRNA experiments, cells were first incubated with an OriGene 3-mer LANCL2 siRNA or scrambled control suspended within ViromerGreen transfection reagent for 6 hours. […] Cells were stimulated with PMA and ionomycin six hours prior to assay.\n(§3) Whole blood was obtained from Crohn's disease patients, clinically categorized as mild to moderate disease."}, "[7]": {"system": "Mdr1a−/− mice", "assay": "Mdr1a−/− model of colitis (IBD)", "type": "in vivo", "description": "Mdr1a−/− model. Mdr1a−/− mice develop spontaneous colitis. […] Mice were weighed and scored weekly to monitor the development of colitis. At 10 weeks of age, Mdr1a−/− were sacrificed for the collection of tissue for downstream assay. DSS model. Lancl2^ΔT and Lancl2-expressing controls were given dextran sulfate sodium in drinking water for seven days. Following seven days, standard drinking water was returned. Mice were weighed and scored daily. Mice were euthanized for tissue collection at 7 and 10 days of experimental timeline. Adoptive transfer model. WT and Lancl2−/− donor spleens were crushed and enriched for CD4+ fraction by magnetic sorting. CD4+CD45RB^hiCD25− (Teff) and CD4+CD45RB^loCD25+ (Treg) cells were sorted by a FACSAria cell sorter. Based on indicated experimental group, Rag2−/− recipient mice received 4×10^5 Teff and 1×10^5 Treg cells from WT or Lancl2−/− origin by intraperitoneal injection. […] Mice were weighed and scored weekly until euthanasia at 8 weeks post-transfer.\nColons and mesenteric lymph nodes (MLN) were collected into RPMI/FBS buffer containing collagenase (300U/mL) and DNase (50U/mL) for digestion. Following filtration of the resulting single cell suspensions, immune cells were purified by Percoll gradient. Cells were labeled with mixtures of extracellular (CD45, CD3, CD4, CD8, CD19, NK1.1, CD25, F4/80, CD11b, CX3CR1, CD64) and intracellular (Tbet, RORγT, FOXP3, IFNγ, IL17, IL10) antibodies in a sequential live staining in 96-well plates. Data was acquired using a FACS Celesta flow cytometer with FACSDiva software.\nTotal RNA from colon and cells was generated using the Qiagen RNeasy mini kit. cDNA was generated using the BioRad iScript cDNA synthesis kit. Standard curves were generated by serial dilution of purified product from a standard PCR reaction with Taq DNA polymerase followed by purification using the Qiagen MinElute PCR purification kit. Expression levels were obtained from quantitative real-time PCR with SybrGreen supermix on a BioRad CFX96 Thermal cycler followed by normalization to expression of β-actin as described previously.\nH&E stained colonic sections were prepared from portions of colons collected into 10% buffered formalin and embedded in paraffin. Slides were examined by a board-certified veterinary pathologist via an Olympus microscope and images were collected with Image-Pro software. Samples were scored (0-4) for leukocytic infiltration, epithelial erosion and mucosal thickening."}, "[8]": {"system": "naïve CD4+ T cells isolated from human PBMCs", "assay": "Human naïve CD4+ T cells differentiated into Tregs", "type": "cell-based", "details": "differentiated into Tregs in presence of BT-11, dose dependent", "method": "as §2, §3"}, "[9]": {"system": "C. difficile strain VPI 10463 (ATCC 43255)", "assay": "C. difficile infection animal model", "type": "in vivo, mice", "details": "8 mg/kg/d after infection"}, "[10]": {"system": "in vitro differentiated Tregs", "assay": "Gene expression of Treg stability genes in in vitro differentiated Tregs", "type": "cell-based, mice", "details": "WT Tregs", "source_text": "Total RNA from colon and cells was generated using the Qiagen RNeasy mini kit. cDNA was generated using the BioRad iScript cDNA synthesis kit. Standard curves were generated by serial dilution of purified product from a standard PCR reaction with Taq DNA polymerase followed by purification using the Qiagen MinElute PCR purification kit. Expression levels were obtained from quantitative real-time PCR with SybrGreen supermix on a BioRad CFX96 Thermal cycler followed by normalization to expression of β-actin as described previously [33].\nSpleens from WT and Lancl2−/− mice were excised and crushed to generate a single cell suspension. CD4+ T cell fraction was enriched by negative selection via magnetic sorting with the BD IMag system. Naïve CD4+ T cells were obtained by incubation with a biotinylated CD62L antibody followed by conjugation to streptavidin coated magnetic beads. Naïve cells were incubated for 48 hours within anti-CD3 coated tissue culture plates in complete IMDM media containing all-trans retinoic acid and purified TGF-β to stimulate differentiation into Tregs [18]. […] Metabolic modulators, PS-48 (5 μM), DASA-58 (10 μM), and thapsigargin (10 nM), were added at 0 h. […] Six hours prior to assay, cells were stimulated with PMA and ionomycin. Cells were collected from plate for downstream analysis by flow cytometry, gene expression and metabolic assay. […]"}, "[11]": {"system": "Naïve CD4+ T cells", "assay": "Differentiation of naïve CD4+ T cells into Tregs with IL-2 or IL-12 (flow cytometry)", "type": "cell-based, mice", "details": "media containing IL-2 or IL-12, inhibitor SF1670 or STAT5i", "method": "Naïve CD4+ T cells were isolated from the spleens of mice by magnetic sorting. The isolated cells were incubated in anti-CD3/anti-CD28 coated 96 well plates in Treg differentiation media. The Treg differentiation media was Iscove's Modified Dulbecco's Medium (IMDM) media (ThermoFisher Scientific) supplemented with fetal bovine serum, HEPES, penicillin/streptomycin, L-glutamine, and differentiation agents. The Treg differentiation agents were 10 nM all-trans-retinoic acid and 5 ng/mL TGF-β. Additional experiments were conducted comparing differentiation in the Treg differentiation media with and without the addition of 10 ng/mL IL-2 or IL-12. […] Prior to assay, cells were stimulated with PMA and ionomycin for 6 hours.\nColonic lamina propria lymphocytes and cultured cells were plated in 96 well plates (6×10^5 cells/well) and processed for immunophenotyping by flow cytometry as previously described. Briefly, cells were incubated with fluorochrome conjugated antibodies to extracellular markers: CD45, CD4, CD3, CD25, CD8. Samples needing a secondary staining were incubated with secondary antibodies, or streptavidin-conjugated fluorochrome. The samples were then fixed and permeabilized. Cells were incubated with antibodies to intracellular markers: Tbet, IFNγ, IL10, FOXP3, IL17, RORγT. Data was acquired with a BD FACS Celesta flow cytometer and analyzed using FACS Diva software (BD Pharmingen). […]"}, "[12]": {"details": "WT Treg pre-treated with BT-11, 24 h co-assay"}},
  "note": "pKd: −log10 of the molar value. Entries after “also recorded” stand apart in the source; their conditions may differ.",
  "data": [
    {"compound": "O=C(c1cccc(-c2nc3ccccc3[nH]2)n1)N1CCN(C(=O)c2cccc(-c3nc4ccccc4[nH]3)n2)CC1", "note": "[BT-11, N,N-Bis(benzimidazolylpicolinoyl)piperazine]", "values": [
      {"measurement": "Treg cell differentiation", "setting": "[1]", "result": "increased differentiation of Tregs"},
      {"measurement": "pKd", "setting": "[2]", "result": 5.11},
      {"measurement": "STAT5a phosphorylation", "setting": "[3]; base Treg differentiation media and with IL-2 or IL-12", "result": "phosphorylated in a greater ratio"},
      {"measurement": "FOXO1 phosphorylation", "setting": "[3]; base media and media containing IL-2, but not IL-12", "result": "similarly affected"},
      {"measurement": "Th1 and Th17 cells in colonic LP", "setting": "[4]; Lancl2ΔT mice treated with BT-11", "result": "failed to induce characteristic reductions in Th1 and Th17 cells"},
      {"measurement": "efficacy in DSS model with loss of LANCL2 in CD4+ T cells", "setting": "[4]; Lancl2ΔT mice, seven-day DSS, oral BT-11", "result": "abrogated the efficacy of BT-11"},
      {"measurement": "proliferative index and TNFα/IFNγ expression", "setting": "[5]; KO (Lancl2−/−) Treg pre-treated with BT-11", "result": "did not induce changes in either measure"},
      {"measurement": "expression of TNFα and IFNγ by cytometric bead array", "setting": "[5]; [12]", "result": "lowered"},
      {"measurement": "proliferative index of CD4+ T cells (CFSE)", "setting": "[5]; [12]", "result": "lowered the proliferative index"},
      {"measurement": "retention of Treg (FOXP3+IL10+) phenotype", "setting": "[5]; WT Treg pre-treated with BT-11, after 24 h co-assay", "result": "greater retention of Treg (FOXP3+IL10+) phenotype"},
      {"measurement": "percentage of IL-10+ and FOXP3+ cells", "setting": "[6]; 24 hour culture with BT-11", "result": "higher percentage of IL-10+ and FOXP3+ cells"},
      {"measurement": "percentages of TNFα+ and IFNγ+ cells", "setting": "[6]; 24 hour culture with BT-11", "result": "lower percentages of TNFα+and IFNγ+ cells"},
      {"measurement": "commitment to effector phenotypes (IFNγ+ cells)", "setting": "[6]; augmented (external) PEP concentration", "result": "prevented cells from an increased commitment to effector phenotypes"},
      {"measurement": "colonic leukocytic infiltration, epithelial erosion and mucosal thickening", "setting": "[7]; 8 mg/kg oral daily, at 10 weeks of age", "result": "reduced colonic leukocytic infiltration, epithelial erosion and mucosal thickening"},
      {"measurement": "disease activity (development of disease)", "setting": "[7]; 8 mg/kg oral daily, six weeks from four weeks of age", "result": "prevented the development of disease throughout the six-week period; also recorded: decreases disease activity index"},
      {"measurement": "efficacy when given therapeutically", "setting": "[7]; beginning after presentation of symptoms at 7 weeks of age", "result": "displays efficacy when given therapeutically"},
      {"measurement": "percentages of IL-10-producing cellular subsets (CX3CR1+ macrophages, Treg cells)", "setting": "[7]; colonic LP and MLN, 8 mg/kg oral daily", "result": "increased percentages of IL-10-producing cellular subsets"},
      {"measurement": "inflammatory cytokines IFNγ, IL17A, IL6, TNFα, MCP1", "setting": "[7]; colonic gene expression and cytometric bead array", "result": "Down-regulation of inflammatory cytokines"},
      {"measurement": "Th1 and Th17 cells in colonic lamina propria and mesenteric lymph nodes", "setting": "[7]; flow cytometry, 8 mg/kg oral daily", "result": "significant (P<0.05) reductions"},
      {"measurement": "whole colon Lancl2 expression", "setting": "[7]; oral treatment", "result": "upregulated whole colon Lancl2"},
      {"measurement": "stability-associated Treg markers (Lag3, Socs2, Irf7, P2rx7, Capn3, Ikzf2)", "setting": "[8]", "result": "upregulation of stability-associated Treg markers"},
      {"measurement": "burden of C. difficile within the colon", "setting": "[9]", "result": "did not induce a decrease in the burden of C. difficile"},
      {"measurement": "colonic pathology including infiltration of leukocytes", "setting": "[9]", "result": "reduced colonic pathology"},
      {"measurement": "mortality", "setting": "[9]", "result": "complete protection against mortality"},
      {"measurement": "neutrophils, Th1 and Th17 cells within the lamina propria", "setting": "[9]", "result": "reduced neutrophils, Th1 and Th17 cells"},
      {"measurement": "regulatory T cells within the lamina propria", "setting": "[9]", "result": "increase in regulatory T cells"},
      {"measurement": "disease activity scores", "setting": "[9]; from day 2 onward", "result": "lower disease activity scores"},
      {"measurement": "expression of P2rx7", "setting": "[10]; 0.625 μM BT-11", "result": "significantly upregulated (P<0.05)"},
      {"measurement": "expression of Socs2, Capn3, Irf7 and Lag3", "setting": "[10]; 48 hours of BT-11 treatment, significant at 0.625 μM", "result": "dose-dependent increase"}
    ]},
    {"compound": "CC(C)(C)C(=O)Nc1ccc2c(c1)C(=O)C(=O)c1ccccc1-2", "note": "[SF1670, reference compound]", "values": [
      {"measurement": "effects of BT-11 on CD25+ FOXP3+ and CD25+ Tbet+ cells with inhibitors", "setting": "[11]", "result": "only prevented effects of BT-11 on CD25+ Tbet+ cells in IL-2 containing media"}
    ]}
  ]
}
